Measured values published in patent publication US20090155376A1, “PROTEIN HYDROLYSATE WITH ANTIDIABETIC EFFECT” (MG PHARMA INC., priority 2004, published 2009).
Where a SMILES comes first, the peptide text is derived from it.

Test system: male and female ICR mice
Experiment: Safety test, oral administration to mice
Type: in vivo
Conditions: 10 g/kg (maximum allowable dose) or greater
Description: The peptide having the amino acid sequence Val-Val-Tyr-Pro (SEQ. ID. No. 1) prepared in Example 2 was orally administered to male and female ICR mice in an amount of 10 g/kg (maximum allowable dose) or greater, and there were no fatalities, thereby establishing the safety of the peptide.

With CC(C)[C@H](N)C(=O)N[C@H](C(=O)N[C@@H](Cc1ccc(O)cc1)C(=O)N1CCC[C@H]1C(=O)O)C(C)C [Peptide (VVYP), Val-Val-Tyr-Pro] (H-VVYP-OH) the Fatalities was “no fatalities”.
